According to patent publication US10266523B2, “Crystaline forms of N-[6-(cis-2,6-dimethylmorpholine-4-yl)pyridine-3-yl]-2-Methyl-4′-(trifluoromethoxy) [1,1′-biphenyl]-3-Methanamide monophosphate, and process of preparation thereof” (CRYSTAL PHARMATECH CO., LTD., priority 2015, dated 2019):
Entries after “also recorded” stand apart in the source; their conditions may differ. Read-outs that look alike come from different tables or passages of the source. One block for each molecule: values may come before it.

Assays:
[1] = Stability of crystalline forms in water and simulated biological media (saturated solution, XRPD of solid); assay type: physicochemical; conditions: for Final form: SGF, listed as Crystalline Form A of monophosphate
Description: After being equilibrated for 1 hour, 4 hours and 24 hours, a small amount solid of each saturated solution was carried out for XRPD test, the testing result is shown in table 9, and the XRPD contrast diagram after 1 hour is shown in FIG. 9, wherein a is starting form of diphosphonate, b is monophosphate Form B of the present disclosure, c is the crystalline form of the diphosphonate after 1 hour in water, d is the crystalline form of the diphosphonate after 1 hour in SGF, e is the crystalline form of the diphosphonate after 1 hour in the FaSSIF, and f is the crystalline form of the diphosphonate after 1 hour in FeSSIF.

[2] = Solid-state storage stability, form change detected by XRPD; assay type: physicochemical; conditions: 120 days
Source text: The samples after storage were detected by XRPD.

[3] = cited from earlier work
[4] = Hygroscopicity assessment by dynamic vapor sorption (DVS); assay type: physicochemical; conditions: 25° C.; for Weight Gain at 80% Relative Humidity: DVS, 10 mg
Description: Dynamic Vapor Sorption (DVS) is measured via a SMS (Surface Measurement Systems) DVS Intrinsic, using 10 mg of crystalline form. Typical Parameters for DVS test are listed below: Temperature: 25° C. Gas and flow rate: N2, 200 mL/min dm/dt: 0.002%/min RH range: 0% RH to 95% RH Stable duration: 10 min Maximum equilibrate time: 180 min Humidity gradient: 10%(0% RH-90% RH), 5%(90% RH-95% RH), Hygroscopicity of 10 mg of monophosphate Form A of compound of formula (I) was tested using dynamic vapor sorption (DVS). About hygroscopicity characterization description and definition of hygroscopicity (Chinese Pharmacopoeia 2010 edition appendix XIXJ Drug hygroscopic test guidelines, test at 25° C.+/−1° C., 80% Relative Humidity) • deliquescent: sufficient water is absorbed to form a liquid. • very hygroscopic: increase in mass is equal to or greater than 15%. • hygroscopic: increase in mass is less than 15% and equal to or greater than 2%. • slightly hygroscopic: increase in mass is less than 2% and equal to or greater than 0.2%. • no or almost no hygroscopic: increase in mass is less than 0.2%.

[5] = Particle size distribution test (Microtrac S3500 laser particle size analyzer, wet process); assay type: physicochemical; conditions: for MV (average particle size calculated by volume): dispersion medium Isopar G; for D10 / D50 / D90: volume distribution, Isopar G
Description: The particle size distribution test in the present disclosure is acquired by the S3500 laser particle size analyzer of Microtrac. Microtrac S3500 is equipped with the Sample Delivery Controller. The test is carried out by wet process, and the dispersion medium is Isopar G The parameters are as follow: [table] 10-30 mg sample was dispersed with 10 mL Isopar G (containing 0.2% of lecithin). The sample is added into the SDC sample injection system when fully mixed. Start the experiment when the sample amount indication chart reaches a proper position. The result of particle size distribution test is shown in table 13, the particle size distribution diagram of the Form A is shown in FIG. 10, and the particle size distribution diagram of the Form B of monophosphate is shown in FIG. 11.

[6] = listed as Crystalline Form A of monophosphate
[7] = listed as Crystalline Form B of monophosphate

form conversion in media ([1]; four media, equilibrated for 1 hour): convert into Form B of monophosphate
Form Change ([2]; 5° C.): Diphosphonate
Form Change ([2]; 25° C./60% RH): Diphosphonate
Form Change ([2]; 40° C./75% RH, listed as diphosphonate in CN102159570): partly changed into Form B
SMILES: Cc1c(C(=O)Nc2ccc(N3C[C@@H](C)O[C@@H](C)C3)nc2)cccc1-c1ccc(OC(F)(F)F)cc1.O=P(O)(O)O.O=P(O)(O)O [Diphosphonate in CN102159570, reference compound]
XRPD of the crystalline form after storage ([3]; 50° C./75% RH, 2 weeks): slightly changed
XRPD of the crystalline form after storage ([3]; 80° C./75% RH, two weeks): changed

Final form ([1]; equilibrium time 1 h): Changed
Final form ([1]; equilibrium time 4 h): Changed
Final form ([1]; equilibrium time 24 h): Changed
stability of crystalline form in media ([1]; water, FaSSIF and FeSSIF, after 1, 4, and 24 hours): stable
Weight Gain at 80% Relative Humidity [4]: 0.59%
Weight Gain at 80% Relative Humidity ([4]; listed as monophosphate Form A): 0.59%
Form Change ([2]; 5° C.): Form A
Form Change ([2]; 25° C./60% RH): Form A
Form Change ([2]; 40° C./75% RH): Form A and Form B
MV (average particle size calculated by volume) [5, 6]: 136.5 um
D10 [5, 6]: 22.7 um
D50 [5, 6]: 100.2 um
D90 [5, 6]: 305.2 um
SMILES: Cc1c(C(=O)Nc2ccc(N3CC(C)OC(C)C3)nc2)cccc1-c1ccc(OC(F)(F)F)cc1 (stereo not drawn) [Form A, N-[6-(cis-2,6-dimethylmorpholine-4-yl)pyridine-3-yl]-2-methyl-4′-(trifluoromethoxy) [1,1′-biphenyl]-3-carboxamide monophosphate]
hygroscopicity class (Chinese Pharmacopoeia 2010 definition) ([4]; 80% Relative Humidity): slightly hygroscopic (increase in mass is less than 2% and equal to or greater than 0.2%)
particle size homogeneity and dispersion [5]: homogeneous particle size and good dispersion

stability of crystalline form in media ([1]; all of the four kinds of media (water, SGF, FaSSIF, FeSSIF)): do not change
Form Change ([2]; 5° C.): Form B
Form Change ([2]; 25° C./60% RH): Form B
Form Change ([2]; 40° C./75% RH): remains unchanged; also recorded: Form B
MV (average particle size calculated by volume) [5, 7]: 55.4 um
D10 [5, 7]: 8.8 um
D50 [5, 7]: 37.5 um
D90 [5, 7]: 124.2 um
SMILES: Cc1c(C(=O)Nc2ccc(N3CC(C)OC(C)C3)nc2)cccc1-c1ccc(OC(F)(F)F)cc1 (stereo not drawn) [Form B, N-[6-(cis-2,6-dimethylmorpholine-4-yl)pyridine-3-yl]-2-methyl-4′-(trifluoromethoxy) [1,1′-biphenyl]-3-carboxamide monophosphate]
particle size homogeneity and dispersion [5]: homogeneous particle size and good dispersion
